Like-named read-outs stand apart in the source and are kept apart here.
How the values were obtained:
[1] = system: human multiple myeloma cell line, OPM-2; assay: Cell viability assay (OPM-2 10 FBS), CellTiter-Glo; format: cell-based
Procedure, shortened: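 OPM-2 cells at 3000 cells/well in RPMI 1640 with 10% FBS were exposed to serially diluted compounds for 16 h at 37 °C, 5% CO2.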

[2] = target: recombinant human Mcl-1 (residues 171-327) / Bim interaction (Homo sapiens (Human), UniProt Q07820); assay: biochemical; format: binding; conditions: read-out: Mcl-1 HTRF IC50
[3] = read-out: OPM-2 10% FBS IC50 IP, OPM-2 cells, 10% FBS, 16 h, CellTiter-Glo
[4] = TR-FRET, Mcl-1(171-327) / biotin-Bim (51-76)
[5] = Homo sapiens, OPM-2, 16 h, read-out: OPM-2 10% FBS IC50 IP, OPM-2 cells, 10% FBS, 16 h, CellTiter-Glo
[6] = 0.1 nM Mcl-1(171-327), 0.05 nM biotin-Bim (51-76)
[7] = Homo sapiens, OPM-2, 16 h, read-out: OPM-2 10% FBS IC50 IP, OPM-2 cells, 10% FBS, 16 h incubation

recombinant human Mcl-1 (residues 171-327) / Bim interaction, sequence (Q07820 171-327): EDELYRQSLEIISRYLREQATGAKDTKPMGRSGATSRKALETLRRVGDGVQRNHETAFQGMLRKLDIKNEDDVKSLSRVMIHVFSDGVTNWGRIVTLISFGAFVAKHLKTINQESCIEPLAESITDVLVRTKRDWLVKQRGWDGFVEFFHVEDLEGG

SMILES | IC50 [2, 4] | IC50 [1, 5] | IC50 [2, 6] | further results
CO[C@@]1(CO)CCC[C@H](C)[C@@H](C)S(=O)(=O)NC(=O)c2ccc3c(c2)N(C[C@@H]2CC[C@H]21)C[C@@]1(CCCc2cc(Cl)ccc21)CO3 (stereo in doubt) [Example 100184, (1S,3′R,6′R,7′S,11′S,12′R)-6-chloro-7′-(hydroxymethyl)-7′-methoxy-11′,12′-dimethyl-3,4-dihydro-2H,15′H-spiro[naphthalene-1,22′-[20]oxa[13]thia[1,14]diazatetracyclo [14.7.2.0~3,6~.0~19,24~]pentacosa[16,18,24]rien]-15′-one 13′,13′-dioxide] | 0.717 nM | – | – | IC50 [1, 3]: 179 nM
C[C@@H]1[C@@H](C)CCC[C@](O)(COCCN(C)C)[C@@H]2CC[C@H]2CN2C[C@@]3(CCCc4cc(Cl)ccc43)COc3ccc(cc32)C(=O)NS1(=O)=O (stereo in doubt) [Example 100196] | 0.461 nM | – | – | IC50 [1, 3]: 358 nM
C[C@@H]1[C@@H](C)C/C=C/[C@@](O)(c2ncnn2C)C2CC[C@H]2CN2C[C@@]3(CCCc4cc(Cl)ccc43)COc3ccc(cc32)C(=O)NS1(=O)=O (stereo in doubt) [Example 100222, (1S,3′R,6′S,7′S,8′E,11′S,12′R)-6-chloro-7′-hydroxy-11′,12′-dimethyl-7′-(1-methyl-1H-1,2,4-triazol-5-yl)-3,4-dihydro-2H,15′H-spiro[naphthalene-1,22′-[20]oxa[13]thia[1,14]diazatetracyclo [14.7.2.0~3,6~.0~19,24~]pentacosa[8,16,18,24]tetraen]-15′-one 13′,13′-dioxide] | 0.182 nM | 222 nM | – | –
C[C@@H]1[C@@H](C)CCC[C@](O)(c2ncccn2)[C@@H]2CC[C@H]2CN2C[C@@]3(CCCc4cc(Cl)ccc43)COc3ccc(cc32)C(=O)NS1(=O)=O (stereo in doubt) [Example 100270] | – | 3720 nM | – | IC50 [2]: 0.776 nM
CO[C@@]1(CS(=O)(=O)C(C)C)/C=C/C[C@H](C)[C@@H](C)S(=O)(=O)NC(=O)c2ccc3c(c2)N(C[C@@H]2CC[C@H]21)C[C@@]1(CCCc2cc(Cl)ccc21)CO3 (stereo in doubt) [Example 100315, (1S,3′R,6′R,7′S,8′E,11′S,12′R)-6-chloro-7′-methoxy-11′,12′-dimethyl-7′-((2-propanylsulfonyl)methyl)-3,4-dihydro-2H,15′H-spiro[naphthalene-1,22′-[20]oxa[13]thia[1,14]diazatetracyclo [147.2.0~3,6~.0~19,24~]pentacosa[8,16,18,24]tetraen]-15′-one 13′,13′-dioxide] | 0.2 nM | – | – | IC50 [1, 3]: 153 nM
CO[C@@]1([C@@H](C)O)/C=C/C[C@H](C)[C@@H](C)S(=O)(=O)NC(=O)c2ccc3c(c2)N(C[C@@H]2CC[C@H]21)C[C@@]1(CCCc2cc(Cl)ccc21)CO3 (stereo in doubt) [Example 100487] | 0.436 nM | 340 nM | – | –
CO[C@]1(c2cncc(CN3CCOCC3)c2)/C=C/C[C@H](C)[C@@H](C)S(=O)(=O)NC(=O)c2ccc3c(c2)N(C[C@@H]2CC[C@H]21)C[C@@]1(CCCc2cc(Cl)ccc21)CO3 (stereo in doubt) [Example 100521] | 0.197 nM | 296 nM | – | –
C[C@@H]1[C@@H](C)C/C=C/C(O)(Cc2nccn2C)[C@@H]2CC[C@H]2CN2C[C@@]3(CCCc4cc(Cl)ccc43)COc3ccc(cc32)C(=O)NS1(=O)=O (stereo in doubt) [Example 100523, (1S,3′R,6′R,7′S,8′E,11′S,12′R)-6-chloro-7′-hydroxy-11′,12′-dimethyl-7′-((1-methyl-1H-imidazol-2-yl)methyl)-3,4-dihydro-2H,15′H-spiro[naphthalene-1,22′-[20]oxa[13]thia[1,14]diazatetracyclo [14.7.2.0~3,6~.0~19,24~]pentacosa[8,16,18,24]tetraen]-15′-one 13′,13′-dioxide] | 0.812 nM | 622 nM | – | –
C[C@@H]1[C@@H](C)C/C=C/C(O)(Cc2nccn2C)[C@@H]2CC[C@H]2CN2C[C@@]3(CCCc4cc(Cl)ccc43)COc3ccc(cc32)C(=O)NS1(=O)=O (stereo in doubt) [Example 100524, (1S,3′R,6′R,7′R,8′E,11′S,12′R)-6-chloro-7′-hydroxy-11′,12′-dimethyl-7′-((1-methyl-1H-imidazol-2-yl)methyl)-3,4-dihydro-2H,15′H-spiro[naphthalene-1,22′-[20]oxa[13]thia[1,14]diazatetracyclo [14.7.2.0~3,6~.0~19,24~]pentacosa[8,16,18,24]tetraen]-15′-one 13′,13′-dioxide] | 0.99 nM | 842 nM | – | –
CO[C@@]1(CC2=N[C@H](C)C(=O)O2)/C=C/C[C@H](C)[C@@H](C)S(=O)(=O)NC(=O)c2ccc3c(c2)N(C[C@@H]2CC[C@H]21)C[C@@]1(CCCc2cc(Cl)ccc21)CO3 (stereo in doubt) [Example 100531] | 0.083 nM | 172 nM | – | –
C[C@@H]1[C@@H](C)C/C=C/[C@](O)(c2cnccc2F)[C@@H]2CC[C@H]2CN2C[C@@]3(CCCc4cc(Cl)ccc43)COc3ccc(cc32)C(=O)NS1(=O)=O (stereo in doubt) [Example 100537] | 0.115 nM | 256 nM | – | –
CO[C@]1(CN2CCN(C(C)C)[C@H](C)C2)/C=C/C[C@H](C)[C@@H](C)S(=O)(=O)NC(=O)c2ccc3c(c2)N(C[C@@H]2CC[C@H]21)C[C@@]1(CCCc2cc(Cl)ccc21)CO3 [Example 8, (1 S,3′R,6′R,7′R,8′E, 11′S,12′R)-6-CHLORO-7′-METHOXY-11′,12′-DIMETHYL-7′-(((3R)-3-METHYL-4-(1-METHYLETHYL)-1-PIPERAZINYL)METHYL)-3,4-DIHYDRO-2H, 15′H-SPIRO [NAPHTHALENE-1,22′-[20]OXA[13]THIA[1,14]DIAZATETRACYCLO[14.7.2.0-3,6˜.0˜19,24˜]PENT ACOSA[8,16,18,24]TETRAEN]-15′-ONE 13′,13′-DIOXIDE] | – | – | 0.053 nM | IC50 ([1]; read-out: OPM-2 10% FBS IC50 IP, OPM-2 cells, 10% FBS, 16 h incubation): 25 nM
COCC[C@@H]1[C@@H](C)C/C=C/[C@](CN2CCN3CCCC[C@@H]3C2)(OC)[C@@H]2CC[C@H]2CN2C[C@@]3(CCCc4cc(Cl)ccc43)COc3ccc(nc32)C(=O)NS1(=O)=O [Example 21, (1S,3′R,6′R,7′S,8′E,11′S,12′R)-6-chloro-7′-methoxy-12′-(2-methoxyethyl)-11′-methyl-7′-((9aR)-octahydro-2H-pyrido[1,2-a]pyrazin-2-ylmethyl)-3,4-dihydro-2H, 15′H-spiro[naphthalene-1,22′-[20]oxa[13]thia[1,14,25]triazatetracyclo[14.7.2.0˜3,6˜.0˜19,24˜]pentacosa[8,16,18,24]tetraen]-15′-one 13′,13′-dioxide] | – | – | 0.156 nM | IC50 [1, 7]: 47 nM
COCC[C@H]1[C@@H](C)C/C=C/[C@](CN2CCN3CCOC[C@@H]3C2)(OC)[C@@H]2CC[C@H]2CN2C[C@@]3(CCCc4cc(Cl)ccc43)COc3ccc(nc32)C(=O)NS1(=O)=O [Example 22, (1S,3′R,6′R,7′S,8′E,11′S,12′S)-6-chloro-7′-((9aS)-hexahydropyrazino[2,1-c][1,4]oxazin-8(1H)-ylmethyl)-7′-methoxy-12′-(2-methoxyethyl)-11′-methyl-3,4-dihydro-2H,15′H-spiro[naphthalene-1,22′-[20]oxa[13]thia[1,14,25]triazatetracyclo [14.7.2.0~3,6~.0~19,24~]pentacosa[8,16,18,24]tetraen]-15′-one 13′,13′-dioxide] | – | – | 0.669 nM | IC50 [1, 7]: 2230 nM
COCC[C@@H]1[C@@H](C)C/C=C/[C@](CN2CCN(C3COC3)CC2)(OC)[C@@H]2CC[C@H]2CN2C[C@@]3(CCCc4cc(Cl)ccc43)COc3ccc(nc32)C(=O)NS1(=O)=O [Example 23, (1S,3′R,6′R,7′S,8′E,11′S,12′R)-6-chloro-7′-methoxy-12′-(2-methoxyethyl)-11′-methyl-7′-((4-(3-oxetanyl)-1-piperazinyl)methyl)-3,4-dihydro-2H,15′H-spiro[naphthalene-1,22′-[20]oxa[13]thia[1,14,25]triazatetracyclo [14.7.2.0~3,6~.0~19,24~]pentacosa[8,16,18,24]tetraen]-15′-one 13′,13′-dioxide] | – | – | 0.071 nM | IC50 [1, 7]: 24 nM
COCC[C@@H]1[C@@H](C)C/C=C/[C@](CN2CCN(C(C)C)CC2)(OC)[C@@H]2CC[C@H]2CN2C[C@@]3(CCCc4cc(Cl)ccc43)COc3ccc(nc32)C(=O)NS1(=O)=O [Example 24, (1S,3′R,6′R,7′S,8′E,11′S,12′R)-6-chloro-7′-methoxy-12′-(2-methoxyethyl)-11′-methyl-7′-((4-(1-methylethyl)-1-piperazinyl)methyl)-3,4-dihydro-2H,15′H-spiro[naphthalene-1,22′-[20]oxa[13]thia[1,14,25]triazatetracyclo [14.7.2.0~3,6~.0~19,24~]pentacosa[8,16,18,24]tetraen]-15′-one 13′,13′-dioxide] | – | – | 0.086 nM | IC50 [1, 7]: 35 nM
COCC[C@@H]1[C@@H](C)C/C=C/[C@](CN2CCN(C(COC)COC)CC2)(OC)[C@@H]2CC[C@H]2CN2C[C@@]3(CCCc4cc(Cl)ccc43)COc3ccc(nc32)C(=O)NS1(=O)=O [Example 25, (1S,3′R,6′R,7′S,8′E,11′S,12′R)-6-chloro-7′-methoxy-12′-(2-methoxyethyl)-7′-((4-(2-methoxy-1-(methoxymethyl)ethyl)-1-piperazinyl)methyl)-11′-methyl-3,4-dihydro-2H,15′H-spiro[naphthalene-1,22′-[20]oxa[13]thia[1,14,25]triazatetracyclo [14.7.2.0~3,6~.0~19,24~]pentacosa[8,16,18,24]tetraen]-15′-one 13′,13′-dioxide] | – | – | 0.113 nM | IC50 [1, 7]: 41 nM

Source: patent US10821115B2, “Compounds that inhibit Mcl-1 protein” (priority 2017, dated 2020)
